Tested on: chronic stomatitis
Assay: Effectiveness of glutathione in treatment of cat stomatitis
Type: in vivo
[1] = one cat with AIDS and serious chronic stomatitis, 30 mg/kg per day mixed in the feed for two weeks

interferon [reference compound]
improvement of chronic stomatitis (same cat, nearly 10 years of treatment before the glutathione): no improvement

N[C@@H](CCC(=O)N[C@@H](CS)C(=O)NCC(=O)O)C(=O)O [reduced glutathione, gamma-L-Glu-L-Cys-Gly]
appetite [1]: improved
fauces erosion and gum inflammation [1]: dramatic improvements

Reference: patent publication US8067537B2, “Composition and method for treatment of stomatitis” (Kyowa Hakko Bio Co., Ltd., priority 2004, dated 2011)
